Data: publication PMC4454357 (Archives of biochemistry and biophysics, 2015)
Where two headings read alike, the source gives them in different places. Values belong to the molecule of their own block, whether it stands above or below them.

Experiments:
AhR [1] = biological target: T1, AhR (Cavia porcellus, UniProt Q6J287)
T1 sequence (Q6J287 1-846): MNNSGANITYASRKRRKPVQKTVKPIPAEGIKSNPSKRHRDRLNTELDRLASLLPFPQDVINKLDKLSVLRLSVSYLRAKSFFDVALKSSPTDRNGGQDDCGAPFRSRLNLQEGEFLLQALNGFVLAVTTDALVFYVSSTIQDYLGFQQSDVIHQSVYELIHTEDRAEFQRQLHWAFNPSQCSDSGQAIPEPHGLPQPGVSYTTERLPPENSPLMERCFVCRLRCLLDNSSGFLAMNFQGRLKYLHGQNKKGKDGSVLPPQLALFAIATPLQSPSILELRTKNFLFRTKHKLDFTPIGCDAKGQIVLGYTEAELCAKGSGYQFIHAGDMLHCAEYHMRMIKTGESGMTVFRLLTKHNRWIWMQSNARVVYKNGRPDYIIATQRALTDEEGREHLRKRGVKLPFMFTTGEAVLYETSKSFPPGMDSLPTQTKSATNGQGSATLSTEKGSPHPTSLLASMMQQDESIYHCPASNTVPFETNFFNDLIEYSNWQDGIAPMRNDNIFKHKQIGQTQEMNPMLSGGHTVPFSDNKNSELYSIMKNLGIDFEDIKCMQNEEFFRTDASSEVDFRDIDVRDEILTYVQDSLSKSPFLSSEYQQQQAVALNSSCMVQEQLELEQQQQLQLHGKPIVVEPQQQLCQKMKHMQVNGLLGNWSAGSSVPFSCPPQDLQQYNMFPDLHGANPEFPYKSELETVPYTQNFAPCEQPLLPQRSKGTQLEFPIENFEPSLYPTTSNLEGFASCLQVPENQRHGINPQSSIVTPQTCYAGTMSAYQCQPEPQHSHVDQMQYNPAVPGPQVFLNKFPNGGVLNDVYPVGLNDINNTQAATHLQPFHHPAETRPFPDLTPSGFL

AhR [2] = biological target: T2, AhR (Rattus norvegicus, UniProt P41738); assay: AhR-dependent luciferase reporter gene assay, rat hepatoma H4L7.5c2
T2 sequence (P41738 10-853): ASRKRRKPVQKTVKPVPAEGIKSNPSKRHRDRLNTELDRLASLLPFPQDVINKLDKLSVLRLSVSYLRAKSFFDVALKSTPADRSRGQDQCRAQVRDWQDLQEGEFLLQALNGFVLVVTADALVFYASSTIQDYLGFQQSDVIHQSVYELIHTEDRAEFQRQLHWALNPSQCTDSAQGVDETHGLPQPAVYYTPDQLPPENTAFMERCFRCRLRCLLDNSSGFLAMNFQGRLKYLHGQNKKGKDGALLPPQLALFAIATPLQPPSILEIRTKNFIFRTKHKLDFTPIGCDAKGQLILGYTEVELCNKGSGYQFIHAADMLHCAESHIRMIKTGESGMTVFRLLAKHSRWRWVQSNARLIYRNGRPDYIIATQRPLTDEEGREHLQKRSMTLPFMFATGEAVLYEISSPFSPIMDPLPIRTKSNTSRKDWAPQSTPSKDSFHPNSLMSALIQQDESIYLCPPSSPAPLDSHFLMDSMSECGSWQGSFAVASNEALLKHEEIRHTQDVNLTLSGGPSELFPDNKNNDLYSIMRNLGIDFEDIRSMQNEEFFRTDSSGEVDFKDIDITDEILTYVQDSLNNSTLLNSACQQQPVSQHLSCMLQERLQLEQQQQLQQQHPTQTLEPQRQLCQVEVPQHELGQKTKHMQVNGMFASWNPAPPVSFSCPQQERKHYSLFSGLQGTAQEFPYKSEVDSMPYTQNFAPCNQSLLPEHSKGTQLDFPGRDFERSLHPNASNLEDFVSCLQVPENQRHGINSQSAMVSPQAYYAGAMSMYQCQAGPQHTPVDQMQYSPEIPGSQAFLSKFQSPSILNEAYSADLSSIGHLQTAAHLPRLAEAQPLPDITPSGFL

AhR [3] = biological target: T3, AhR (Homo sapiens, UniProt P35869)
T3 sequence (P35869 11-848): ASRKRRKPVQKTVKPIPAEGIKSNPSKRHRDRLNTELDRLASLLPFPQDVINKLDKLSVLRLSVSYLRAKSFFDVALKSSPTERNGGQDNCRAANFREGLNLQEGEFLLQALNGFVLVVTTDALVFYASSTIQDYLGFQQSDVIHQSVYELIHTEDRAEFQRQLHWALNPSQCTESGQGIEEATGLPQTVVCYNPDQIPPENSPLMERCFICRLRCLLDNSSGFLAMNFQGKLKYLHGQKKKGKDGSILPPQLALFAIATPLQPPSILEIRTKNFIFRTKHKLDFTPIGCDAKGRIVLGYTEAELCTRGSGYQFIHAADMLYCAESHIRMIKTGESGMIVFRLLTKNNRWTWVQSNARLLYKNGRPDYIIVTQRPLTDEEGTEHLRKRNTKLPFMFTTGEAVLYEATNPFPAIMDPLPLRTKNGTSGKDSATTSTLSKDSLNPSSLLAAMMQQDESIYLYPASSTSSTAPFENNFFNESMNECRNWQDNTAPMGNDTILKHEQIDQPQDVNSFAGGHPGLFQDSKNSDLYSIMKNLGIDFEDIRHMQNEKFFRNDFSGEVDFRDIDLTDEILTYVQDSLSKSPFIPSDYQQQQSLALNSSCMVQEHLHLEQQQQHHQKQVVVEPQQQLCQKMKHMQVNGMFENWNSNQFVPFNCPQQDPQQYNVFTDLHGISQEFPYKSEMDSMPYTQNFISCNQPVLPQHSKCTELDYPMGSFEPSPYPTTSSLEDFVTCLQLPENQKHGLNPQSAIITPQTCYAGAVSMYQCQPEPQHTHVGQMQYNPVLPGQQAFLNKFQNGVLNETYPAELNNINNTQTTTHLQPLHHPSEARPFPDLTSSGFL

AhR [4] = biological target: T1, AhR; remark: listed apart in the source
AhR [5] = biological target: T2, AhR
AhR [6] = biological target: T3, AhR; assay: AhR-dependent luciferase reporter gene assay, human hepatoma HG2L7.5c1; settings: for difference in relative potency among the cell lines studied: human, mouse, rat and guinea pig cell lines compared
AhR [7] = biological target: AhR (Mus musculus, UniProt P30561); assay: AhR-dependent luciferase reporter gene assay, mouse hepatoma H1L7.5c3; settings: mouse cell line
Chain of AhR (Mus musculus, UniProt P30561) (P30561 10-848): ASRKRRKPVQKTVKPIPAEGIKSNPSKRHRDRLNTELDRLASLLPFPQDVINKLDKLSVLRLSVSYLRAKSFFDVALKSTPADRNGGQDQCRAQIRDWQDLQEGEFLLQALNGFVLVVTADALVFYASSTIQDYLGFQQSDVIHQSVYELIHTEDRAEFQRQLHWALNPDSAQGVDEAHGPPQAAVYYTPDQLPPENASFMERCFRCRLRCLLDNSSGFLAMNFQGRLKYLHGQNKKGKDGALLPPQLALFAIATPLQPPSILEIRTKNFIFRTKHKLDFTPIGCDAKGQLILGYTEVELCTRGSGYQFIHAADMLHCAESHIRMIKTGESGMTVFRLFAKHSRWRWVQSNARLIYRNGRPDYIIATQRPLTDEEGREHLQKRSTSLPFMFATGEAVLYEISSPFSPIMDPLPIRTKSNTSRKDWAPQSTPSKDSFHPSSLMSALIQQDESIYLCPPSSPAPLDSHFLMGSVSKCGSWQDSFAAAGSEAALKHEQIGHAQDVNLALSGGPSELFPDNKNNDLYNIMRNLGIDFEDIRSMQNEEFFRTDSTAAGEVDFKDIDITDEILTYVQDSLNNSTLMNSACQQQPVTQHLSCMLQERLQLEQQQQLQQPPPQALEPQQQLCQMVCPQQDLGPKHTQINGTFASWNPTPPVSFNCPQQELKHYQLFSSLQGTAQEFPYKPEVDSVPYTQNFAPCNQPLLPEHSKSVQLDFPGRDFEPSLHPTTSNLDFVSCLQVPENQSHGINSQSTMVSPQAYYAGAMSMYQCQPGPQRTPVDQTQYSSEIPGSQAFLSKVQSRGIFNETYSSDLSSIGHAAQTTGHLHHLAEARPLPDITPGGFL

AhR [8] = assay: as above; settings: EC50 mouse versus rat cell lines
[9] = biological target: T4, guinea pig hepatic cytosolic AhR (Cavia porcellus, UniProt Q6J287); assay: [3H]TCDD competitive ligand binding, hydroxyapatite binding assay; settings: 2 nM [3H]TCDD, 1 h, room temperature, guinea pig hepatic cytosol
T4 sequence (Q6J287 1-846): T1 sequence (Q6J287 1-846)

[10] = read-out: Relative potency (EC50) as activators of AhR-dependent reporter gene expression, Human cell line HG2L7.5c1, 6 h, mean of triplicate concentration response analysis

EC50 (AhR [1]): 0.95 nM | EC50 (AhR [2]): 0.94 nM
Molecule: O=C1Nc2ccccc2/C1=C1/Nc2ccccc2C1=O [Indirubin, indirubin]

Molecule: O=C1c2ccccc2-n2c1nc1ccccc1c2=O [Tryptanthrin, tryptanthrin]
EC50 (AhR [1]): 181 nM | EC50 (AhR [2]): 946 nM

EC50 (AhR [3]): 4.9 nM | EC50 (AhR [4]): 4.3 nM | EC50 (AhR [5]): 4.3 nM | difference in relative potency among the cell lines studied (AhR [6]): lowest degree of difference
Molecule: O=C(c1c[nH]c2ccccc12)c1nccc2c1[nH]c1ccccc12 [Pityriacitrin, pityriacitrin]

EC50 (AhR [2]): 0.078 nM
Molecule: O=Cc1c2[nH]c3ccccc3c2cc2[nH]c3ccccc3c12 [FICZ, 6-formyl-indolo[3,2-b]carbazole]

Molecule: indolo[3,2-b]carbazole [ICZ]
EC50 (AhR [7]): 0.009 nM | difference in EC50 between the mouse and rat cell lines (AhR [8]): ~ 109 fold | EC50 (AhR [6]; [10]): 0.6 nM

Molecule: Clc1cc2c(cc1Cl)Oc1cc(Cl)c(Cl)cc1O2 [TCDD, 2,3,7,8-tetrachlorodibenzo-p-dioxin, reference compound]
EC50 (AhR [1]): 0.1 nM | EC50 (AhR [2]): 0.1 nM | EC50 (AhR [6]): 0.53 nM

Molecule: pityriazepin
displacement of [3H]TCDD [9]: displaced [^3H]TCDD from guinea pig hepatic cytosol in a concentration-dependent manner | difference in relative potency among the cell lines studied (AhR [6]): lowest degree of difference | EC50 (AhR [6]; [10]): 5 nM

EC50 (AhR [3]): 11.1 nM | EC50 (AhR [4]): 276 nM | EC50 (AhR [5]): 56 nM | relative inducing potency difference between the human and mouse cell lines (AhR [6]; EC50 human versus mouse hepatoma cells): ~ 26 fold
Molecule: O=Cc1c(Cc2c[nH]c3ccccc23)[nH]c2ccccc12 [Malassezin, malassezin]
